Laboratory results taken from the NIST ThermoML archive (doi:10.1021/je9010097).

Test: excess molar enthalpy (molar enthalpy of mixing); xn = mol fraction of the nth substance listed
Settings: 308.15 K, 101 kPa, Liquid, Flow calorimetry

C1COCCN1 [tetrahydro-1,4-oxazine] + C1COCCO1
Settings | excess molar enthalpy [kcal/mol]
x2 = 0.108 | 0.0296
x2 = 0.201 | 0.0507
x2 = 0.303 | 0.0681
x2 = 0.403 | 0.0772
x2 = 0.506 | 0.0791
x2 = 0.6 | 0.0753
x2 = 0.703 | 0.0645
x2 = 0.803 | 0.0495
x2 = 0.905 | 0.0272

C1COCCN1 [tetrahydro-1,4-oxazine] + C1CCOCC1
Settings | excess molar enthalpy [kcal/mol]
x2 = 0.101 | 0.039
x2 = 0.199 | 0.0703
x2 = 0.3 | 0.0946
x2 = 0.401 | 0.109
x2 = 0.501 | 0.115
x2 = 0.6 | 0.11
x2 = 0.702 | 0.0963
x2 = 0.8 | 0.0731
x2 = 0.899 | 0.0411

C1COCCN1 [tetrahydro-1,4-oxazine] + C1CCCCC1
Settings | excess molar enthalpy [kcal/mol]
x2 = 0.1 | 0.146
x2 = 0.201 | 0.261
x2 = 0.3 | 0.354
x2 = 0.401 | 0.418
x2 = 0.5 | 0.446
x2 = 0.6 | 0.436
x2 = 0.7 | 0.392
x2 = 0.801 | 0.312
x2 = 0.9 | 0.195
